In the experiment the test system is Swiss mice, Sarcoma 180 sc, mean tumor weight T/C. As to the kind of experiment: NCI In Vivo Anticancer Drug Screen. Data for tumor model Sarcoma 180 (subcutaneous) in Swiss mice. Particulars: endpoint: mean tumor weight, higher = larger tumour. Summed up: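 Readout is the ratio of treated-group measurement to vehicle-control measurement (T/C), based on survival or tumor size in mice carrying transplanted tumors.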

Setting [1] is: dose: 53.0 mg/kg/injection, schedule: Q01DX007 (ip), vehicle: methylcellulose (MC).
[2] abbreviates: dose: 80.0 mg/kg/injection, schedule: Q01DX007 (ip), vehicle: methylcellulose (MC).

Several values for one entry are separate records, joined by “and”; a condition that tells them apart may be missing. Equal entries are not always repeated.

As for `CC1=C(CO)C(=O)O[C@@H]([C@@H](C)[C@H]2CC[C@H]3[C@@H]4C[C@H]5O[C@]56[C@@H](O)C=CC(=O)[C@]6(C)[C@H]4CC[C@]23C)C1`, the T/C runs as follows: (dose: 10.0 mg/kg/injection, schedule: Q01DX007 (ip), vehicle: carboxymethylcellulose (CMC)) 64 % of control; (dose: 13.3 mg/kg/injection, schedule: Q01DX007 (ip), vehicle: saline) 97 % of control; (dose: 13.7 mg/kg/injection, schedule: Q01DX007 (ip), vehicle: saline) 85 % of control; (dose: 16.0 mg/kg/injection, schedule: Q01DX007 (ip), vehicle: saline) 77 % of control; (dose: 16.0 mg/kg/injection, schedule: Q01DX007 (sc), vehicle: olive oil, sesame oil, peanut oil) 90 % of control; (dose: 16.0 mg/kg/injection, schedule: Q01DX007 (sc), vehicle: steriod suspending solution) 93 % of control. The T/C (dose: 18.0 mg/kg/injection, schedule: Q01DX007 (ip), vehicle: saline) is 60 % of control; the T/C (dose: 24.0 mg/kg/injection, schedule: Q01DX007 (ip), vehicle: saline) was 54 % of control; the T/C (dose: 24.0 mg/kg/injection, schedule: Q01DX007 (sc), vehicle: olive oil, sesame oil, peanut oil) is 109 % of control; the T/C (dose: 24.0 mg/kg/injection, schedule: Q01DX007 (sc), vehicle: steriod suspending solution) is 66 % of control; the T/C (dose: 33.0 mg/kg/injection, schedule: Q01DX007 (ip), vehicle: saline) is 25 % of control; the T/C (dose: 36.0 mg/kg/injection, schedule: Q01DX007 (sc), vehicle: olive oil, sesame oil, peanut oil) is 77 % of control. The T/C (dose: 36.0 mg/kg/injection, schedule: Q01DX007 (sc), vehicle: steriod suspending solution) was 79 % of control.

With `O=C(O)C(=O)O.O=C([O-])C(=O)O.O=C([O-])C(=O)O.O=C([O-])C(=O)[O-].[K+].[U]`, the T/C runs as follows: (dose: 7.5 mg/kg/injection, schedule: Q#A X014 (ip), vehicle: saline) 51 % of control and 59 % of control; (dose: 11.25 mg/kg/injection, schedule: Q#A X014 (ip), vehicle: saline) 21 % of control.

Take `Nc1nc(=S)c2ncn(C3OC(COC(=O)c4ccc([N+](=O)[O-])cc4)C(OC(=O)c4ccc([N+](=O)[O-])cc4)C3OC(=O)c3ccc([N+](=O)[O-])cc3)c2[nH]1` (configuration not stated): the T/C was 77 % of control (dose: 4.0 mg/kg/injection, schedule: Q01DX007 (ip), vehicle: carboxymethylcellulose (CMC)); 94 % of control (dose: 7.0 mg/kg/injection, schedule: Q01DX007 (ip), vehicle: carboxymethylcellulose (CMC)); 93 % of control and 110 % of control (dose: 15.0 mg/kg/injection, schedule: Q01DX007 (ip), vehicle: carboxymethylcellulose (CMC)); 63 % of control (dose: 23.0 mg/kg/injection, schedule: Q01DX007 (ip), vehicle: methylcellulose (MC)); 37 % of control (dose: 35.0 mg/kg/injection, schedule: Q01DX007 (ip), vehicle: carboxymethylcellulose (CMC)); 29 % of control and 32 % of control (dose: 36.0 mg/kg/injection, schedule: Q01DX007 (ip), vehicle: carboxymethylcellulose (CMC)). Besides, the T/C runs as follows: (dose: 36.0 mg/kg/injection, schedule: Q01DX007 (ip), vehicle: methylcellulose (MC)) 77 % of control; (dose: 53.0 mg/kg/injection, schedule: Q01DX007 (ip), vehicle: carboxymethylcellulose (CMC)) 15 % of control and 30 % of control; under setting [1], 56 % of control; (dose: 80.0 mg/kg/injection, schedule: Q01DX007 (ip), vehicle: carboxymethylcellulose (CMC)) 16 % of control; under setting [2], 62 % of control.

As to `O=[N+]([O-])c1ccc(C=Nc2ccc3c(c2)C(Br)c2ccccc2-3)cc1` (configuration not stated), the T/C (dose: 55.0 mg/kg/injection, schedule: Q#A X014 (ip), vehicle: saline) was 56 % of control; the T/C (dose: 83.0 mg/kg/injection, schedule: Q#A X014 (ip), vehicle: saline) is 30 % of control and 37 % of control; the T/C (dose: 110.0 mg/kg/injection, schedule: Q01DX007 (ip), vehicle: saline) is 88 % of control; the T/C (dose: 125.0 mg/kg/injection, schedule: Q#A X014 (ip), vehicle: saline) is 28 % of control and 37 % of control; the T/C (dose: 166.0 mg/kg/injection, schedule: Q01DX007 (ip), vehicle: saline) is 85 % of control; the T/C (dose: 187.5 mg/kg/injection, schedule: Q#A X014 (ip), vehicle: saline) is 18 % of control. Further, the T/C by setting is: (dose: 250.0 mg/kg/injection, schedule: Q01DX007 (ip), vehicle: saline) 94 % of control; (dose: 375.0 mg/kg/injection, schedule: Q01DX007 (ip), vehicle: saline) 61 % of control.

Regarding `COc1cccc(/C=N\NC(=O)C(C)SC(C)C(=O)N/N=C/c2cccc(OC)c2)c1` (configuration not stated), the T/C is 68 % of control (dose: 25.0 mg/kg/injection, schedule: Q01DX007 (ip), vehicle: carboxymethylcellulose (CMC)); 62 % of control (dose: 38.0 mg/kg/injection, schedule: Q01DX007 (ip), vehicle: carboxymethylcellulose (CMC)); 78 % of control (dose: 42.0 mg/kg/injection, schedule: Q#A X014 (ip), vehicle: carboxymethylcellulose (CMC)); 77 % of control under setting [1]; 35 % of control (dose: 56.0 mg/kg/injection, schedule: Q01DX007 (ip), vehicle: carboxymethylcellulose (CMC)); 79 % of control (dose: 63.0 mg/kg/injection, schedule: Q#A X014 (ip), vehicle: carboxymethylcellulose (CMC)). For the same compound, the T/C is, setting by setting: under setting [2], 63 % of control; (dose: 95.0 mg/kg/injection, schedule: Q#A X014 (ip), vehicle: carboxymethylcellulose (CMC)) 65 % of control; (dose: 120.0 mg/kg/injection, schedule: Q01DX007 (ip), vehicle: methylcellulose (MC)) 47 % of control; (dose: 142.5 mg/kg/injection, schedule: Q#A X014 (ip), vehicle: carboxymethylcellulose (CMC)) 61 % of control; (dose: 180.0 mg/kg/injection, schedule: Q01DX007 (ip), vehicle: methylcellulose (MC)) 59 % of control; (dose: 270.0 mg/kg/injection, schedule: Q01DX007 (ip), vehicle: methylcellulose (MC)) 58 % of control. Also, the T/C (dose: 300.0 mg/kg/injection, schedule: Q01DX007 (ip), vehicle: carboxymethylcellulose (CMC)) is 64 % of control and the T/C (dose: 400.0 mg/kg/injection, schedule: Q01DX007 (ip), vehicle: carboxymethylcellulose (CMC)) was 59 % of control.

`CCCCCN(C)/N=N/c1nc[nH]c1C(N)=O`: the T/C is, setting by setting: (dose: 50.0 mg/kg/injection, schedule: Q01DX007 (ip), vehicle: carboxymethylcellulose (CMC)) 41 % of control and 51 % of control; (dose: 75.0 mg/kg/injection, schedule: Q01DX007 (ip), vehicle: carboxymethylcellulose (CMC)) 23 % of control and 36 % of control; (dose: 100.0 mg/kg/injection, schedule: Q01DX007 (ip), vehicle: carboxymethylcellulose (CMC)) 24 % of control.

Regarding `C[C@]12CC[C@@H]3c4ccc(O)cc4CC[C@H]3[C@@H]1C[C@H](O)C2`, the T/C runs as follows: (dose: 0.25 mg/kg/injection, schedule: Q#A X014 (sc), vehicle: steriod suspending solution) 120 % of control; (dose: 0.5 mg/kg/injection, schedule: Q01DX007 (sc), vehicle: steriod suspending solution) 110 % of control; (dose: 1.25 mg/kg/injection, schedule: Q01DX007 (sc), vehicle: steriod suspending solution) 60 % of control; (dose: 1.25 mg/kg/injection, schedule: Q#A X014 (sc), vehicle: steriod suspending solution) 99 % of control; (dose: 2.5 mg/kg/injection, schedule: Q#A X014 (sc), vehicle: steriod suspending solution) 58 % of control; (dose: 10.0 mg/kg/injection, schedule: Q#A X014 (sc), vehicle: steriod suspending solution) 73 % of control.

`COC(=O)[C@H]1[C@H]2C[C@@H]3c4[nH]c5cc(OC)ccc5c4CCN3C[C@H]2C[C@@H](OC(=O)c2cc(OC)c(OC)c(OC)c2)[C@@H]1OC`: the T/C is, setting by setting: (dose: 0.44 mg/kg/injection, schedule: Q01DX007 (ip), vehicle: carboxymethylcellulose (CMC)) 101 % of control; (dose: 0.5 mg/kg/injection, schedule: Q01DX007 (ip), vehicle: carboxymethylcellulose (CMC)) 91 % of control; (dose: 0.66 mg/kg/injection, schedule: Q01DX007 (ip), vehicle: carboxymethylcellulose (CMC)) 79 % of control; (dose: 2.0 mg/kg/injection, schedule: Q01DX007 (ip), vehicle: carboxymethylcellulose (CMC)) 35 % of control; (dose: 2.3 mg/kg/injection, schedule: Q01DX007 (ip), vehicle: carboxymethylcellulose (CMC)) 42 % of control; (dose: 3.4 mg/kg/injection, schedule: Q01DX007 (ip), vehicle: carboxymethylcellulose (CMC)) 18 % of control.

`Cc1cc(N=C2C=CC(=O)C=C2)c(C(C)C)cc1O`: the T/C (dose: 200.0 mg/kg/injection, schedule: Q01DX007 (ip), vehicle: other) was 52 % of control; the T/C (dose: 300.0 mg/kg/injection, schedule: Q01DX007 (ip), vehicle: other) is 61 % of control; the T/C (dose: 450.0 mg/kg/injection, schedule: Q01DX007 (ip), vehicle: other) is 59 % of control; the T/C (dose: 600.0 mg/kg/injection, schedule: Q01DX007 (ip), vehicle: other) is 53 % of control.

These data come from PubChem BioAssay AID342 (DTP/NCI, 2004).
